In patent US20170247326A1, “Substituted Pyrrolidine Carboxamide Compounds” (EPIZYME, INC., priority 2014, published 2017):

Biological target: T1, SMYD2 (Homo sapiens, UniProt Q9NRG4)
T1 construct: Full length SMYD2 (NP_064582.2) was cloned; His6 (N, cleaved yes); FLAG (N); made in house; host or cells: Sf9 insect cells
Assay: SMYD2 biochemical assay (3H-SAM, biotinylated peptide substrate, Flashplate)
Details: Table 1; average of n = 1 to n = 50; read-out: SMYD2 Biochem IC50
Description: S-adenosylmethionine (SAM), S-adenosylhomocysteine (SAH), bicine, Tween20, dimethylsulfoxide (DMSO), bovine skin gelatin (BSG), and Tris(2-carboxyethyl)phosphine hydrochloride (TCEP) were purchased from Sigma-Aldrich at the highest level of purity possible. ^3H-SAM was purchase from American Radiolabeled Chemicals with a specific activity of 80 Ci/mmol. 384-well streptavidin Flashplates were purchased from PerkinElmer.
Peptide was synthesized with a N-terminal linker-affinity tag motif and a C-terminal amide cap by 21st Century Biochemicals. The peptide was high high-performance liquid chromatography (HPLC) purified to greater than 95% purity and confirmed by liquid chromatography mass spectrometry (LC-MS). The sequence was […](K-Biot)-amide. (SEQ ID NO: 3)
Full length SMYD2 (NP_064582.2) was cloned into a pFastbac-Htb-lic vector with an N-terminal His6 tag and FLAG tag, preceded by a TEV protease cleavage site. The protein was expressed in Sf9 insect cells. Cells were resuspended in lysis buffer (25 mM HEPES-NaOH, pH 7.5, 200 mM NaCl, 5% glycerol, and 5 mM […] and lysed by sonication. The protein was purified by Ni-NTA (Qiagen), followed by TEV cleavage to remove the His6 tag, subtractive Ni-NTA (Qiagen), and gel filtration chromatography using an S200 column (GE Healthcare). Purified protein was stored in 20 mM Tris-HCl, pH 8.0, 100 mM NaCl, and 1 mM TCEP.
General Procedure for SMYD2 Enzyme Assays on Peptide Substrates
The assays were all performed in a buffer consisting of 20 mM Bicine (pH=7.6), 1 mM TCEP, 0.005% Bovine Skin Gelatin, and 0.002% Tween20, prepared on the day of use. Compounds in 100% DMSO (1 ul) were spotted into a polypropylene 384-well V-bottom plates (Greiner) using a Platemate Plus outfitted with a 384-channel head (Thermo Scientific). DMSO (1 ul) was added to Columns 11, 12, 23, 24, rows A-H for the maximum signal control and 1 ul of SAH, a known product and inhibitor of SMYD2, was added to columns 11, 12, 23, 24, rows I-P for the minimum signal control. A cocktail (40 ul) containing the SMYD2 enzyme was added by Multidrop Combi (Thermo-Fisher). The compounds were allowed to incubate with SMYD2 for 30 min at room temperature, then a cocktail (10 ul) containing ^3H-SAM and peptide was added to initiate the reaction (final volume=51 ul). The final concentrations of the components were as follows: SMYD2 was 1.5 nM, ^3H-SAM was 10 nM, and peptide was 60 nM, SAH in the minimum signal control wells was 1000 uM, and the DMSO concentration was 2%. The assays were stopped by the addition of non-radioactive SAM (10 ul) to a final concentration of 600 uM, which dilutes the ^3H-SAM to a level where its incorporation into the peptide substrate is no longer detectable. 50 ul of the reaction in the 384-well polypropylene plate was then transferred to a 384-well Flashplate and the biotinylated peptides were allowed to bind to the streptavidin surface for at least 1 hour before being washed three times with 0.1% Tween20 in a Biotek ELx405 plate washer. The plates were then read in a PerkinElmer TopCount plate reader to measure the quantity of ^3H-labeled peptide bound to the Flashplate surface, measured as disintegrations per minute (dpm) or alternatively, referred to as counts per minute (cpm).
Where dpm=disintegrations per minute, cmpd=signal in assay well, and min and max are the respective minimum and maximum signal controls.
Where top and bottom are the normally allowed to float, but may be fixed at 100 or 0 respectively in a 3-parameter fit. The Hill Coefficient normally allowed to float but may also be fixed at 1 in a 3-parameter fit. I is the compound concentration.
SMYD2 biochemical assay data for representative Compounds of the Disclosure are presented in Tables 1, 3, and 4 in the column titled “SMYD2 Bicohem IC50 (μM).”

T1 sequence (Q9NRG4 whole entry): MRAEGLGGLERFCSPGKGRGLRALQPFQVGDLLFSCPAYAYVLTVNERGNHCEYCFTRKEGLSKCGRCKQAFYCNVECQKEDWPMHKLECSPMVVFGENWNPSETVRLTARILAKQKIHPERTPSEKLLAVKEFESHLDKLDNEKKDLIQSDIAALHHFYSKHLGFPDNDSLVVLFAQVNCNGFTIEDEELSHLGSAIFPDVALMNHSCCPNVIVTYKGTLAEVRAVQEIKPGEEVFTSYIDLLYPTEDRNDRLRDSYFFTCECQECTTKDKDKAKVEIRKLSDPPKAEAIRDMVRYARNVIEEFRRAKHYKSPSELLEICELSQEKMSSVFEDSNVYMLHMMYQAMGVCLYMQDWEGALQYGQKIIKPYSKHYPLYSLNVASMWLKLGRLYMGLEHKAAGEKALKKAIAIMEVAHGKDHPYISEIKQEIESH

IC50	SMILES
> 50 µM	C[C@H]1CN(C2CC2)C[C@@H]1NC(=O)c1ccc2[nH]c(=O)oc2c1 (racemic) [compound 13, (±)-trans-N-(1-cyclopropyl-4-methylpyrrolidin-3-yl)-2-oxo-2,3-dihydrobenzo[d]oxazole-6-carboxamide]
> 50 µM	C[C@H]1CN(C2CC2)C[C@H]1NC(=O)c1ccc2[nH]c(=O)[nH]c2c1 (racemic) [compound 23, (±)-cis-N-(1-cyclopropyl-4-methylpyrrolidin-3-yl)-2-oxo-2,3-dihydro-1H-benzo[d]imidazole-5-carboxamide]
> 50 µM	C[C@H]1CN(C2CC2)C[C@H]1NC(=O)c1ccc2c(c1)CC(=O)N2 (racemic) [Cpd. No. 6, (±)-cis-N-(1-cyclopropyl-4-methylpyrrolidin-3-yl)-2-oxoindoline-5-carboxamide]

Same assay, conditions: Table 3; average of n = 1 to n = 50; read-out: SMYD2 Biochem IC50

SMILES	IC50
CC(C)N1C[C@H](C)[C@H](NC(=O)c2cn(C(C)C)nn2)C1 (racemic) [compound 25, (±)-cis-N-[4-methyl-1-(propan-2-yl)pyrrolidin-3-yl]-1-(propan-2-yl)-1H-1,2,3-triazole-4-carboxamide]	6.34 µM
C[C@@H]1CN(Cc2ccc(OCc3ccccc3)cc2)C[C@@H]1NC(=O)c1cc(C2CC2)cnn1 (racemic) [compound 104, (±)-cis-N-(1-{[4-(benzyloxy)phenyl]methyl}-4-methylpyrrolidin-3-yl)-5-cyclopropylpyridazine-3-carboxamide]	0.0917 µM
CC(C)N1C[C@@H](C)[C@H](NC(=O)c2coc(C3CC3)n2)C1 (racemic) [compound 54, (±)-trans-2-cyclopropyl-N-[4-methyl-1-(propan-2-yl)pyrrolidin-3-yl]-1,3-oxazole-4-carboxamide]	> 50 µM
CC(=O)N[C@@H]1CN(C(C)C)C[C@@H]1C (racemic) [compound 40, (±)-cis-N-[4-methyl-1-(propan-2-yl)pyrrolidin-3-yl]acetamide]	> 50 µM
CC(C)N1C[C@H](C)[C@H](NC(=O)c2noc(C3CC3)n2)C1 (racemic) [compound 38, (±)-cis-5-cyclopropyl-N-[4-methyl-1-(propan-2-yl)pyrrolidin-3-yl]-1,2,4-oxadiazole-3-carboxamide]	> 50 µM
CC(C)N1C[C@@H](C)[C@H](NC(=O)c2nnc(C3CC3)o2)C1 (racemic) [compound 49, (±)-trans-5-cyclopropyl-N-[4-methyl-1-(propan-2-yl)pyrrolidin-3-yl]-1,3,4-oxadiazole-2-carboxamide]	26.8 µM
CC(C)N1C[C@H](NC(=O)c2ccc3c(c2)NC(=O)CO3)[C@@H](C)C1 (racemic) [compound 37, (±)-trans-N-[4-methyl-1-(propan-2-yl)pyrrolidin-3-yl]-3-oxo-3,4-dihydro-2H-1,4-benzoxazine-6-carboxamide]	> 50 µM
CC(C)c1coc(C(=O)N[C@@H]2CN(C(C)C)C[C@@H]2C)n1 (racemic) [compound 102, (±)-cis-N-[4-methyl-1-(propan-2-yl)pyrrolidin-3-yl]-4-(propan-2-yl)-1,3-oxazole-2-carboxamide]	> 50 µM
CC(C)N1C[C@H](C)[C@H](NC(=O)c2ccc3c(c2)OCC(=O)N3)C1 (racemic) [compound 29, (±)-cis-N-[4-methyl-1-(propan-2-yl)pyrrolidin-3-yl]-3-oxo-3,4-dihydro-2H-1,4-benzoxazine-7-carboxamide]	> 50 µM
CC(C)N1C[C@@H](C)[C@H](NC(=O)c2c[nH]c(C3CC3)n2)C1 (racemic) [compound 71, (±)-trans-2-cyclopropyl-N-[4-methyl-1-(propan-2-yl)pyrrolidin-3-yl]-1H-imidazole-4-carboxamide]	> 50 µM
CC(C)N1C[C@@H](C)[C@@H](NC(=O)c2cnn(C(C)C)c2)C1 (racemic) [compound 46, (±)-cis-N-[4-methyl-1-(propan-2-yl)pyrrolidin-3-yl]-1-(propan-2-yl)-1H-pyrazole-4-carboxamide]	> 50 µM

Further lines, results first:

IC50	SMILES
> 50 µM	CC(C)N1C[C@H](C)[C@H](NC(=O)c2cnnc(C3CC3)c2)C1 (racemic) [compound 64, (±)-cis-6-cyclopropyl-N-[4-methyl-1-(propan-2-yl)pyrrolidin-3-yl]pyridazine-4-carboxamide]
> 50 µM	CC(C)N1C[C@@H](C)[C@H](NC(=O)c2cc(C3CC3)ncn2)C1 (racemic) [compound 68, (±)-trans-6-cyclopropyl-N-[4-methyl-1-(propan-2-yl)pyrrolidin-3-yl]pyrimidine-4-carboxamide]
> 50 µM	CC(C)N1C[C@H](C)[C@H](NC(=O)c2cc(C3CCC3)cnn2)C1 (racemic) [compound 94, (±)-cis-5-cyclobutyl-N-[4-methyl-1-(propan-2-yl)pyrrolidin-3-yl]pyridazine-3-carboxamide]
> 50 µM	CC(C)N1C[C@@H](C)[C@H](NC(=O)c2cncc(C3CC3)n2)C1 (racemic) [compound 43, (±)-trans-6-cyclopropyl-N-[4-methyl-1-(propan-2-yl)pyrrolidin-3-yl]pyrazine-2-carboxamide]
> 50 µM	CC(C)N1C[C@H](C)[C@H](NC(=O)c2cncc(C3CC3)n2)C1 (racemic) [compound 42, (±)-cis-6-cyclopropyl-N-[4-methyl-1-(propan-2-yl)pyrrolidin-3-yl]pyrazine-2-carboxamide]
> 50 µM	CC(C)N1C[C@@H](C)[C@H](NC(=O)c2nccc(C3CC3)n2)C1 (racemic) [compound 67, (±)-trans-4-cyclopropyl-N-[4-methyl-1-(propan-2-yl)pyrrolidin-3-yl]pyrimidine-2-carboxamide]
1.96 µM	CC(C)N1C[C@H](C)[C@H](NC(=O)c2ncc(C3CC3)[nH]2)C1 (racemic) [compound 79, (±)-cis-5-cyclopropyl-N-[4-methyl-1-(propan-2-yl)pyrrolidin-3-yl]-1H-imidazole-2-carboxamide]
> 50 µM	CC(C)N1C[C@H](C)[C@H](NC(=O)c2ccc(C3CC3)nn2)C1 (racemic) [compound 109, (±)-cis-6-cyclopropyl-N-[4-methyl-1-(propan-2-yl)pyrrolidin-3-yl]pyridazine-3-carboxamide]
> 50 µM	CC(C)N1C[C@H](C)[C@H](NC(=O)c2cc(C3CC3)ns2)C1 (racemic) [compound 91, (±)-cis-3-cyclopropyl-N-[4-methyl-1-(propan-2-yl)pyrrolidin-3-yl]-1,2-thiazole-5-carboxamide]

Same assay, conditions: Table 4; average of n = 1 to n = 50; read-out: SMYD2 Biochem IC50

IC50	SMILES
2.7 µM	C[C@H]1CN(Cc2ccc(OCc3ccccc3)cc2)C[C@@H]1NC(=O)c1cc(C2CC2)cnn1 (racemic) [compound 132, rac-N-((3R,4S)-1-(4-(benzyloxy)benzyl)-4-methylpyrrolidin-3-yl)-5-cyclopropylpyridazine-3-carboxamide]
> 50 µM	C[C@H]1CN(S(=O)(=O)CCN)C[C@H]1NC(=O)c1cc(C2CC2)cnn1 (racemic) [compound 127, rac-N-((3R,4R)-1-((2-aminoethyl)sulfonyl)-4-methylpyrrolidin-3-yl)-5-cyclopropylpyridazine-3-carboxamide]
2.2 µM	CC(C)N1C[C@H](C)[C@H](NC(=O)c2cn(C3CC3)cn2)C1 (stereo in doubt) [compound 123, rac-1-cyclopropyl-N-((3R,4R)-1-isopropyl-4-methylpyrrolidin-3-yl)-1H-imidazole-4-carboxamide]
